# Key:
# [1] = test system: SYHT0H2 soybeans; assay: Greenhouse: tank-mix and sequential Sequestrene 138Fe, HPPD-inhibitor maximum injury; format: in vivo, soybean
# Description: Effect of Tank-mix and Sequential Application of Sequestrene® 138 on Mesotrione (Applied as Callisto®)—Maximum Injury in SYHT0H2 Soybeans
# An experiment is conducted in the greenhouse to determine the effect of chelated iron (Sequestrene 138Fe containing 6% iron) on HPPD-inhibitor injury to SYHT0H2 soybeans. Soybeans are grown in pots filled with a greenhouse potting mix. When the plants reach the V2-V3 stage, they are sprayed with an HPPD-inhibitor herbicide applied alone (Treatment 1), or in tank mixture with Sequestrene 138Fe (Treatment 2), or sequentially with Sequestrene 138Fe applied 1 day before the HPPD inhibitor (Treatment 3). Sequestrene 138Fe is applied at 2240 g/ha (equivalent to 134 g iron/ha). All treatments are applied with liquid ammonium sulfate @ 2.5% v/v and a non-ionic surfactant (NIS) @ 0.25% v/v in 150 L/ha water. Observations on percent injury are recorded 5, 11, or 22 days after treatment. Data presented are maximum injury observed during the trial.
# [2] = test system: Velvetleaf (Abutilon theophrasti); assay: Greenhouse weed control: HPPD inhibitors with or without Sequestrene 138Fe, velvetleaf; format: in vivo; conditions: percent velvetleaf control 19 DAT
# Description: Effect of Tank Mix Applications of HPPD Inhibitors and Sequestrene® 138Fe on Velvetleaf Control. Percent Control Assessed 19 DAT
# (§1) A greenhouse experiment is conducted to determine the effect of chelated iron on weed control in the greenhouse. Velvetleaf (Abutilon theophrasti) and common waterhemp (Amaranthus rudis) plants are grown in 4×4-inch pots filled with a greenhouse potting mix. When the plants reached the 2 to 3 inch height (2 to 3 leaf stage), they are sprayed with a reduced rate of an HPPD inhibitor alone or in a tank mix combination with Sequestrene 138Fe at 140 g/ha (equivalent to 8.4 g iron/hectare) or 280 g/ha (equivalent to 16.8 g iron/hectare). […] Observations on percent control are recorded 12, 19, and 25 days after treatment.
# [3] = test system: common waterhemp (Amaranthus rudis); assay: Greenhouse weed control: HPPD inhibitors with or without Sequestrene 138Fe, common waterhemp; format: in vivo; conditions: common waterhemp control 17 DAT
# Description: as §1
# Effect of Tank Mix Applications of Various HPPD Inhibitors and Sequestrene 138Fe on Common Waterhemp Control. Injury Assessed 17 DAT
# An experiment is performed to look at the effect of applying iron chelates on control of Common Waterhemp using HPPD-inhibiting herbicides. Experiment design is analogous to that outlined in Experiment 3 above.
# [4] = test system: SYHT0H2 soybeans; assay: Greenhouse: water-soluble iron compounds safening mesotrione, maximum injury; conditions: in vivo
# Description: An experiment is conducted to look at the safening effect of a variety of water-soluble iron-containing compounds. SYHT0H2 soybean plants are grown in small pots filled with a greenhouse potting mix. […] In all cases, mesotrione was applied at 420 g ai/ha and all treatments contained liquid ammonium sulphate at 2.5% v/v and NIS at 0.25% v/v. The application rates of iron-containing compounds indicated are iron equivalent rates. […] Percent injury levels were assessed 6, 9, and 16 days after treatment. Data presented are maximum injury occurring from any of the treatments at any time during the experiment.
# [5] = test system: SYHT0H2 soybeans; assay: Greenhouse: Sequestrene 138Fe rate series, percent injury from HPPD-inhibitors at 7 DAT; format: in vivo, soybean; conditions: mesotrione 420, bicyclopyrone 200, tembotrione 368, topramezone 72 g/ha
# Description: Effect of Sequestrene® 138Fe on Percent Injury from Various HPPD-inhibitors on SYHT0H2 Soybeans. Injury Assessed at Seven Days after Treatment (7 DAT)
# SYHT0H2 soybeans are grown in 4×4-inch pots filled with a greenhouse potting mix. When the plants reach the V2-V3 growth stage, they are treated with an HPPD inhibitor applied alone or in a tank mixture with Sequestrene 138Fe at various rates ranging from 140 g product/ha (equivalent to 8.4 g iron/ha) to 2240 g product/ha (equivalent to 134 g iron/ha).
# [6] = test system: HPPD-tolerant soybean event SYHT04R; assay: Glasshouse: post-emergence HPPD herbicide damage with or without Sequestrene 138Fe, 7 DAA; format: in vivo; conditions: isoxaflutole, tembotrione
# Description: (§2) Safening of Various HPPD-inhibiting Herbicides in HPPD-tolerant Soybean Events SYHT04R and SYHT0H2
# (§3) An experiment is performed to determine whether the addition of chelating iron to the spray formulation can mitigate foliar bleaching injury from the HPPD herbicides mesotrione, bicyclopyrone, tembotrione, isoxaflutole, topramezone and pyrasulfatole when applied post-emergence to the HPPD-tolerant soybean events SYHT04R and SYHT0H2.
# (§4) Soybean plants are grown in a glasshouse (24° C. day, 18° C. night; 65% relative humidity; 16 hour photoperiod). Two replicates are utilised in respect of SYHT0H2 (growth stage V1-V3) and three replicates are utilised in respect of SYHT04R (growth stage V1 to V3). Spray applications are applied post-emergence at […]. Herbicide damage was assessed 7 DAA (Days After Application).
# [7] = test system: HPPD-tolerant soybean event SYHT0H2; assay: as above; format: in vivo; conditions: isoxaflutole, tembotrione
# Description: as §2, §3, §4
# [8] = test system: SYHT04R soybeans; assay: Greenhouse: Sequestrene 138Fe safening of HPPD-inhibitors, injury 6 days after treatment; format: in vivo, soybean; conditions: 6 days after treatment (maximum injury), mesotrione 420, bicyclopyrone 200, isoxaflutole 280 g/ha
# Description: Effect of Sequestrene® 138Fe on Various HPPD-inhibitors in SYHT04R Soybeans. Maximum Injury Assessed 6 Days after Treatment
# A greenhouse experiment is conducted to determine if Sequestrene® 138Fe was effective in safening various other HPPD herbicide-tolerant soybean events, such as SYHT04R.
# SYHT04R soybean plants are grown in 4×4-inch pots filled with a greenhouse potting mix. When the plants reached the V2-V3 growth stage, they are sprayed with an HPPD inhibitor alone or in combination with Sequestrene® 138Fe at 1120 g/ha (equivalent to 67.2 g iron/ha). […] Observations on percent injury are recorded at 6 and 20 days after treatment. Data presented is from the 6 days after treatment rating representing the maximum injury observed during the experiment.
# [9] = test system: SYHT04R soybean; assay: Greenhouse: chelated Fe versus chelated Mn, bicyclopyrone maximum injury; format: in vivo; conditions: additive none, maximum injury of 5 and 9 days after treatment
# Description: Effect of Chelated Fe and Chelated Mn on Safening SYHT04R Soybean from Bicyclopyrone Injury
# A greenhouse experiment is conducted to determine if chelating agents containing nutrient elements other than Fe were also effective in safening HPPD herbicide-tolerant soybeans.
# SYHT04R soybean plants are grown in 4×4-inch pots filled with a greenhouse potting mix. When the plants reached the V2-V3 growth stage, they are sprayed with an HPPD inhibitor alone or in combination with Sequestrene 138Fe or a solution containing 6% EDTA-chelated Mn. […] Observations on percent injury were recorded 5, and 9 days after treatment. Data presented are maximum injury observed during the experiment.
# [10] = Sequestrene 138Fe 0 g/ha, g ai/ha: mesotrione 26, isoxaflutole 26, bicyclopyrone 50, tembotrione 46, pyrasulfatole 22, topramezone 18
# [11] = Sequestrene 138Fe 280 g/ha tank mix, g ai/ha: bicyclopyrone 50, tembotrione 46, pyrasulfatole 22, topramezone 18
# [12] = Sequestrene 138Fe 140 g/ha tank mix, mesotrione 26, isoxaflutole 26 g ai/ha
# [13] = Sequestrene 138Fe 140 g/ha tank mix
# [14] = Sequestrene 138Fe 280 g/ha tank mix
# [15] = Sequestrene 138Fe 560 g/ha tank mix
# [16] = Sequestrene 138Fe 1120 g/ha tank mix
# [17] = Sequestrene 138Fe 2240 g/ha tank mix
# [18] = Sequestrene 138Fe 1000 g/ha, g ai/ha: mesotrione 200, bicyclopyrone, pyrasulfatole 100, topramazone 50
# [19] = Sequestrene 138Fe 1000 g/ha, g ai/ha: mesotrione 800, bicyclopyrone, pyrasulfatole 400, topramazone 200
# [20] = no Sequestrene 138Fe, g ai/ha: mesotrione 200, bicyclopyrone, pyrasulfatole 100, topramazone 50
# [21] = no Sequestrene 138Fe, g ai/ha: mesotrione 800, bicyclopyrone, pyrasulfatole 400, topramazone 200
Compound,"% Injury [2, 10] [%]","% Injury [2, 11] [%]","% Injury [3, 10] [%]","% Injury [3, 11] [%]","Herbicide damage SYHT04R [6, 18]","Herbicide damage SYHT04R [6, 19]","Herbicide damage SYHT04R [6, 20]","Herbicide damage SYHT04R [6, 21]","Herbicide damage SYHT0H2 [7, 18]","Herbicide damage SYHT0H2 [7, 19]","Herbicide damage SYHT0H2 [7, 20]","Herbicide damage SYHT0H2 [7, 21]",other results
"CS(=O)(=O)c1ccc(C(=O)C2C(=O)CCCC2=O)c(Cl)c1COCC(F)(F)F [Tembotrione, tembotrione]",98,99,99,99,–,–,–,–,–,–,–,–,% Maximum Injury ([1]; in vivo): 31%
"CS(=O)(=O)c1cc(C(F)(F)F)ccc1C(=O)c1cnoc1C1CC1 [Isoxaflutole, isoxaflutole]",78,–,87,–,–,–,–,–,–,–,–,–,"% Injury [2, 12]: 82%; % Injury [3, 12]: 88%"
"O=S(=O)([O-])[O-].[Fe+2] [Ferrous Sulfate (Fe2SO4), iron (II) sulphate (ferrous sulphate)]",–,–,–,–,–,–,–,–,–,–,–,–,safening SYHT0H2 soybeans from mesotrione injury [4]: effective
"Cc1c(C(=O)c2cnn(C)c2O)ccc(S(C)(=O)=O)c1C1=NOCC1 [Topramezone, topramezone]",96,93,100,99,2,3,5,17,5,0,8,23,"% Injury ([5]; Sequestrene 138Fe 0 g/ha): 8%; % Injury [5, 13]: 0%; % Injury [5, 14]: 0%; % Injury [5, 15]: 0%; % Injury [5, 16]: 0%; % Injury [5, 17]: 0%"
"Cc1nn(C)c(O)c1C(=O)c1ccc(C(F)(F)F)cc1S(C)(=O)=O [Pyrasulfatole, pyrasulfotole]",85,80,98,77,0,2,4,12,10,18,10,4,–
iron DTPA [Sequestrene 330-Fe],–,–,–,–,–,–,–,–,–,–,–,–,safening SYHT0H2 soybeans from mesotrione injury [4]: effective
bicyclopyrone,100,100,90,96,5,30,15,42,3,25,13,40,"% Maximum Injury ([1]; Sequestrene 138Fe 2240 g/ha applied 1 day before herbicide (Treatment 3, sequential), mesotrione 420, bicyclopyrone 200, tembotrione 368 g ai/ha): 12%; % Maximum Injury ([1]; herbicide alone (Treatment 1), mesotrione 420, bicyclopyrone 200, tembotrione 368 g ai/ha, maximum of 5, 11, 22 days after treatment): 25%; % Maximum Injury ([1]; tank mix with Sequestrene 138Fe 2240 g/ha (Treatment 2, simultaneous), mesotrione 420, bicyclopyrone 200, tembotrione 368 g ai/ha): 3%; % Injury ([5]; Sequestrene 138Fe 0 g/ha): 23%; % Injury [5, 13]: 12%; % Injury [5, 14]: 10%; % Injury [5, 15]: 1%; % Injury [5, 16]: 0%; % Injury [5, 17]: 0%; % Injury ([8]; Sequestrene 138Fe 0 g/ha): 29%; % Injury ([8]; Sequestrene 138Fe 1120 g/ha): 7%; % Injury [9]: 29%"

# From US10159254B2, “Weed control methods” (Syngenta Participations AG, priority 2013, dated 2018)
